Key:
[1] = molecular target: T1, cloned human 5-HT2C receptor (Homo sapiens, UniProt P28335); test: Human 5-HT2C receptor binding assay ([3H]mesulergine, CHO-K1 membranes); conditions: displacement of [3H]mesulergine (1 nM), read-out: 5-HT2C pKi (converted)
T1 construct: purchased Euroscreen; host or cells: CHO-K1 cells
T1 sequence (P28335 33-458): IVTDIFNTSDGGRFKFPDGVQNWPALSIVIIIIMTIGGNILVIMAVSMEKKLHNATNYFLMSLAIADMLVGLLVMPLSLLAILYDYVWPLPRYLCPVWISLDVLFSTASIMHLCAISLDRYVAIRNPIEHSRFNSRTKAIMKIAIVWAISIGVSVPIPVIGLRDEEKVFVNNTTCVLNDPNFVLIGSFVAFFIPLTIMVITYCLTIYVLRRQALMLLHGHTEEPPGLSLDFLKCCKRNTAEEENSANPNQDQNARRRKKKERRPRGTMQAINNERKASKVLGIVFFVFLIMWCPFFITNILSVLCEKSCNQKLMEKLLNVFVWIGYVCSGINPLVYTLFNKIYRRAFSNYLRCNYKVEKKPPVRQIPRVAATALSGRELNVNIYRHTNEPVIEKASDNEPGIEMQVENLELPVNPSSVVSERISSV
Experimental: The binding affinity of ligands for human 5-HT2A and 5-HT2C receptors was determined using the following assay.
Membrane preparations from CHO-K1 cells expressing the cloned human 5-HT2C receptor were obtained (Euroscreen). The membranes were thawed rapidly and diluted in assay buffer containing Tris-HCl (50 mM, pH 7.7), ascorbic acid (0.1%) and pargyline (10 μM). The membranes were resuspended by homogenisation, prior to adding 6 μg of membranes to assay wells containing [^3H] mesulergine (1 nM), assay buffer (50 mM Tris at pH 7.7 and 0.1% ascorbic acid) containing pargyline (10 μM), and test compounds (1×10^−10 to 1×10^−4M). Non specific binding was determined in the presence of 100 μM mianserin. After 30 minutes incubation at 37° C., the assay mixture was filtered through a combination of GF-C and GF-B filters, pre-soaked in 1% bovine serum albumin, using a Brandel cell harvester, and were washed three times using ice cold Tris-HCl buffer (50 mM). Radioactivity retained on the filters was determined by liquid scintillation counting. For each test compound, the concentration that inhibited binding of [3H]mesulergine by 50% was determined using curve fitting software (Prism). Kd values (concentration of mesulergine required to occupy 50% of the receptor binding sites at equlibrium) determined from saturation binding studies were then used to calculate inhibition dissociation constants (Ki) using the following equation: […]

[2] = molecular target: T2, human cloned 5-HT2B receptors (Homo sapiens, UniProt P41595); test: Human cloned 5-HT2B cell-based functional assay (Fluo-4, CHO.K1 cells); conditions: inhibition of 5-HT response, CHO.K1 cells expressing cloned 5-HT2B, Fluo-4 AM
T2 construct: expressed in transfected cells; host or cells: CHO-K1 cells
T2 sequence (P41595 whole entry): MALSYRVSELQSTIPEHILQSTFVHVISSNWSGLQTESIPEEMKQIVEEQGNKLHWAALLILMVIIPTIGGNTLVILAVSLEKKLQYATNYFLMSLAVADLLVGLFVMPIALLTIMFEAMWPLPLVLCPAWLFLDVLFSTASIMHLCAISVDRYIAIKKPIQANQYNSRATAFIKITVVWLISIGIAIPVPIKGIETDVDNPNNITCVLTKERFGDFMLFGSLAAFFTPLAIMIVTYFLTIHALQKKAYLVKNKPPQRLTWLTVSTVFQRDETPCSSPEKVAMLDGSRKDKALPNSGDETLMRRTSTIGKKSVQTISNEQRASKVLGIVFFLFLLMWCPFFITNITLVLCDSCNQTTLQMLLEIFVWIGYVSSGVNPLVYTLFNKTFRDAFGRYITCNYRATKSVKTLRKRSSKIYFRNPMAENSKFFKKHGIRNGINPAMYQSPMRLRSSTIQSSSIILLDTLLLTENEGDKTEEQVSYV
Experimental: The following describes an in vitro functional assay using human cloned 5-HT2B receptors to determine the ability of compounds to block the receptor. CHO.K1 cells expressing cloned 5-HT2B receptor were maintained In Ultra-CHO medium containing 400 μg/ml of G418, 100 U/ml penicillin, 100 μg/ml streptomycin, 2.5 μg/ml fungizone, in 95/5% O2/CO2 at 37° C. Ultra-CHO medium additionally supplemented with 1% foetal bovine serum was used when seeding the cells and removed after 5 hours. Cells were plated in Costar 96 well white, clear-bottomed plate at a density of 50,000 cells per well and incubated for at least 24 hours in 95/5% O2/CO2 at 37° C. before running the assay. Media was removed from the wells and 200 μl of 4 μM Fluo-4 AM added, this was incubated in a Wallace Victor 2V workstation at 37° C. for 30 minutes. The Fluo-4 AM was then removed from the wells, which were then washed twice with 200 μl of buffer (HBSS without calcium/magnesium/phenol red, 20 mM HEPES, 1 mM Ca^2+, 1 mM Mg^2+, 2.5 mM probenecid, pH to 7.4), 180 μl of buffer or test compound was added to the well and incubated for 30 minutes. The Victor 2V injectors were used to inject 20 μl of 5-HT after obtaining 10 0.1-second baseline readings at 535 nm, followed by 150 readings. All test compounds were aliquoted in 100% DMSO at 10 mM and diluted to 1 mM in 50% DMSO, subsequent dilutions were made using buffer. Buffer was also used to dilute the 5-HT. Data were analysed using Microsoft Excel and GraphPad Prism, with the latter used to produce sigmoidal dose-response curves for each compound. The compound concentration that inhibited the 5-HT response by 50% was taken (IC50-M), and the results are shown in Table 3, as pIC50, being the negative log (to the base 10) of the measured IC50 values.

## Nc1nc(-c2cccc3ccccc23)co1 [Compound 1, 2-amino-4-(naphth-1-yl)oxazole]
[1]
  Ki: > 1000 nM
[2]
  IC50: < 100 nM
other
  melting point: 155 to 162 °C

## Cc1ccc2ccccc2c1-c1coc(N)n1 [Compound 6, 2-amino-4-(2′-methylnaphth-1-yl)oxazole]
[1]
  Ki: > 1000 nM
[2]
  IC50: < 100 nM

## CC(C)c1nc(N)oc1-c1cccc2ccccc12 [Compound 7, 2-amino-4-isopropyl-5-(naphth-1-yl)oxazole]
[1]
  Ki: > 1000 nM
[2]
  IC50: < 10 nM
other
  melting point: 127 to 129 °C

## COc1ccc2ccccc2c1-c1coc(N)n1 [Compound 17, 4-(2-methoxy-naphthalen-1-yl)-oxazol-2-ylamine]
[1]
  Ki: > 100 nM
[2]
  IC50: < 10 nM

## CC(C)c1nc(N)oc1-c1ccc(F)c2ccccc12 [Compound 31, 2-amino-5-(4′-fluoronaphth-1-yl)-4-isopropyloxazole]
[1]
  Ki: > 1000 nM
[2]
  IC50: < 10 nM
other
  melting point: 141 °C

Reference: patent publication US7429607B2, “5-HT2B receptor antagonists” (Asterand UK Limited, priority 2002, dated 2008)
